Laboratory results as given in patent US7371779B2, “Synergistic compositions of N-acylhomoserine lactones and 4-quinolones” (The Secretary of State for Defense Science and Technology, priority 2001, dated 2008).
Read-outs that look alike come from different tables or passages of the source.

Tested on: human PBMC
Assay: ConA mitogen-stimulated proliferation of human PBMC ([3H]-thymidine incorporation)
Format: cell-based
Conditions: for IC50: Experiment II, read-out: IC50 in inhibition of ConA induced cell proliferation of PBMC
Protocol: Blood specimens were obtained with consent from healthy human volunteers. Human peripheral blood mononuclear cells (PBMC) were isolated from heparinised whole blood by buoyant density centrifugation over Histopaque 1077 (Sigma, Poole, UK) at 600 g for 20 minutes. PBMC harvested from the ‘buffy’ layers were washed twice with RPMI 1640 medium and resuspended in CTCM. […] Human PBMC were incubated for 48 h at 37° C. in 5% CO2-air, followed by pulsing with 0.25 μCi [^3H]-thymidine (see above). After a further incubation of 24 h cells were harvested onto fibreglass filters and then counted in the presence of MicroScint-O with the Packard TopCount.
Concanavalin induced cell proliferation of human peripheral blood mononuclear cells (PBMC) was tracked, as described in I above, by a measurement of counts per minute using the scintillation counter. The inhibitory effect of an HSL compound being tested on cell proliferation was indicated by a reduction in counts per minute. […] Columns B, C and D represent different sources of human PBMC samples used.
Plots of counts per minute (cpm) against the concentration of the quorum sensing molecules and the vehicle are shown in FIG. 11.

## CCCCCCCCCC(=O)CC(=O)N[C@H]1CCOC1=O [Example 6]
6.25 μM, alone
  effect of OdDHL alone on ConA induced hPBMC proliferation: inactive
ConA 1 μg/ml
  inhibition of ConA induced proliferation of human PBMC (cpm), in words: inhibited proliferation of human PBMC
Human PBMC source B
  IC50: 60 µM
Human PBMC source C
  IC50: 7 µM
Human PBMC source D
  IC50: 34 µM
